Molecules are shown by their SMILES. Like-named read-outs stand apart in the source and are kept apart here.

For data set [1] the following is noted: cited from earlier work.
The subject of a further data set is PC-3 xenograft model. Kind of data set: In vivo xenograft study, PC-3. Also noted: species or system BALB/cSlc-nu/nu mice. The note with it: for TGI (tumor growth inhibition): intravenously every 4 days. As for the experimental part: (§1) For evaluation of antitumor activity, MV-4-11 (5 × 10^6 cells) or PC-3 cells (2 × 10^6 cells) were injected subcutaneously in the inguinal region of 6-week-old male BALB/cSlc-nu/nu mice (Japan SLC, Inc., Shizuoka, Japan), with Matrigel (BD Biosciences, San Jose, CA, USA). When the average tumor volume (length × width^2 × 1/2) had reached 40 to 120 mm^3, animals were randomized into groups of seven mice for vehicle control group of MV-4-11 xenograft model or five mice for the other groups (day 1). Test compounds were injected into the tail vein every 4 days from day 1, with an administration volume of 10 ml/kg. Tumor volumes were measured 2 times per week and body weights of the mice were monitored on 2 or 3 times per week as an indicator of tolerability. On day 22 or 16, antitumor activity was evaluated by weighing tumor tissues. Tumor growth inhibition, TGI (%), was calculated according to formula (1 − T/C) × 100, where T and C are the mean tumor weights for the experimental and vehicle control groups, respectively. The differences between the mean tumor weights for comparing groups were analyzed using Dunnett’s test, where P < 0.05 was considered to be significant.

A further data set has as its system MV-4-11 xenograft model. Kind of data set: In vivo xenograft study, MV-4-11. Further details: species or system BALB/cSlc-nu/nu mice. The note with it: for TGI (tumor growth inhibition): intravenously every 4 days. On the procedure: as §1
The next data set concerns the target T1, Pim-2 (Homo sapiens, UniProt Q9P1W9).
T1 construct: purchased Life Technologies; Thermo Fisher Scientific Inc
Kind of data set: In vitro Pim kinase activity assay (FRET-based Z'-LYTE), Pim-2. The following applies: ATP 5 µM; read-out: IC50 values for enzyme activities, Pim-2. It counts as biochemical. On the procedure:
(§2) The inhibition ratios of test compounds for Pim-1, 2 (Life Technologies; Thermo Fisher Scientific Inc., MA, United States), 3 (Merck KgaA), and FLT3 (Life Technologies; Thermo Fisher Scientific Inc., MA, United States) were determined using a modified FRET-based Z′-LYTE kinase assay kit (Invitrogen; Thermo Fisher Scientific Inc.). The Ser/Thr 7 peptide and Tyr-2 peptide were used as substrates for Pim kinases and FLT3, respectively. The reactions were carried out in a 384-well plate with a 10 µL reaction volume per well containing 1 µM substrates in 50 mM HEPES buffer with pH 7.5, 0.01% BRIJ-35, 10 mM MgCl2, 1 mM EGTA, and an appropriate amount of kinases (Pim-1: 0.03 μg/ml, Pim-2: 0.2 μg/ml, Pim-3: 0.2 μg/ml, FLT3: 0.1 μg/ml) with test compounds. The final reaction concentrations of ATP were 400, 5, 100, and 500 µM for Pim-1, 2, 3, and FLT3 respectively. After 1 h incubation, reactions were developed and terminated, and fluorescence ratios were calculated following the manufacturer’s protocol.

The next data set deals with T2, Pim-3 (Homo sapiens, UniProt Q86V86).
T2 construct: purchased Merck KgaA
Description: In vitro Pim kinase activity assay (FRET-based Z'-LYTE), Pim-3. Type of data set: biochemical. The following applies: ATP 100 µM; read-out: IC50 values for enzyme activities, Pim-3. On the procedure: as §2

The target in data set [2] is T3, Pim-1 (Homo sapiens, UniProt P11309).
T3 construct: purchased Life Technologies; Thermo Fisher Scientific Inc
Description: In vitro Pim kinase activity assay (FRET-based Z'-LYTE), Pim-1. It counts as biochemical. The note with it: ATP 400 µM; read-out: IC50 values for enzyme activities, Pim-1. As for the experimental part:
as §2

Data set [3] concerns the target T3, Pim-1. Description: Binding detection based on SPR platform (BIACORE T200). The following applies: 6.5, 13, 25, or 50 µM. As for the experimental part: The interactions between test compounds and Pim-1 were detected by surface plasmon resonance platform BIACORE T200 (GE Healthcare Life Sciences, Buckinghamshire, England). Pim-1 was diluted to 20 μg/ml in 10 mM acetate buffer (pH 5.0), and then immobilized as a ligand in the N-hydroxysuccinimide/ethyl 3-(3-dimethylaminopropyl) carbodiimide-pre-activated CM5 sensor chip, following blocking by ethanolamine. Test compounds were diluted at 6.5, 13, 25, or 50 µM in a vehicle of 5% DMSO (v/v) in phosphate buffered saline (PBS). The dilutions were injected as analyte flow liquid phase with PBS containing 5% DMSO (v/v) as running buffer at a constant flow rate of 30 μL/min. A 2-min association time was set. The data were collected by Biacore Control Software. Kinetics and affinity parameters were evaluated with the Langmuir model (1:1) using BIA evaluation software.
(In general: In SPR one partner is held on a chip, and binding of the other changes the refractive index at the surface.)

Data set [4] relates to phosphorylation level of 4E-BP in PC-3 tumors. Description: Pharmacodynamics study in PC-3 xenograft tumors (phospho-4E-BP immunoblot). It counts as in vivo, mice. The note with it: single dose 187.5 mg/kg. As for the experimental part:
(§3) Cells were plated overnight and then treated with test compounds for 4 hours. Then, the cells were lyzed in solubilization buffer [10 mM Tris-HCl (pH7.4), 0.1% (w/v) NP-40, 0.1% (w/v) sodium deoxycholate, 0.1% (w/v) SDS, 0.15 M NaCl, 1 mM EDTA, 10 µM aprotinin] with phosphatase inhibitor cocktails (Nakarai Tesque, Kyoto, Japan), and subjected to SDS-PAGE using 15% (w/v) gels under reducing conditions. The separated proteins were electrotransferred to Immobilon transfer membranes (Merck Millipore, Darmstadt, Germany). Then, each membrane was reacted with primary antibodies, which were subsequently complexed with appropriate horseradish peroxidase-conjugated secondary antibodies. Signals were detected using the ECL Western Blotting Detection System (GE Healthcare Life Sciences) and protein expression was quantified with a LAS-3000 Luminescent Image Analyzer (GE Healthcare Life Sciences). The protein bands were quantified using ImageQuant TL software (GE Healthcare Life Sciences).
Tumors were resected 1, 2, 6, or 24 h after injection and lyzed for immunoblot analysis.
In general terms: Immunoblotting shows a protein as a band on a membrane.

The test system of the next data set is PC-3. Kind of data set: Immunoblot analysis of phosphorylation of Pim kinase substrates, PC-3. The note with it: PC-3, 4 h. It counts as cell-based. On the procedure: as §3
Another data set has as its system cancer cell lines. Kind of data set: Cytotoxicity assay for cell survival (cancer cell proliferation). Type of data set: cell-based. The note with it: 96 hours; read-out: IC50 for proliferation of a broad spectrum of cancer cell lines (range). An excerpt: We obtained colon cancer HCT116 and HT-29 cells, prostate cancer PC-3, DU145, and LNCaP cells, lung cancer NCI-H460 and NCI-H522 cells, breast cancer MDA-MB-231 cells, AML MV-4-11 cells, and chronic myeloid leukemia (CML) K-562, MEG-01, and KU812 cells from American Type Culture Collection (Manassas, VA, United States); stomach cancer MKN45 cells from the Health Science Research Resources Bank (Osaka, Japan); pancreatic cancer AsPC-1 and MIA PaCa-2, and lung cancer A549 cells from DS Pharma Biomedical (Osaka, Japan). All cell lines were cultured in RPMI1640 medium (Life Technologies; Thermo Fisher Scientific Inc.) with 10% (v/v) fetal bovine serum (FBS; Sigma-Aldrich; Merck KgaA) at 37°C in 5% CO2.
Cells were seeded in 96-well plates and test compounds were added to the cultures at several concentrations.

The target of a further data set is T4, FLT3 (Homo sapiens, UniProt P36888).
T4 construct: purchased Life Technologies; Thermo Fisher Scientific Inc
T4 sequence (P36888 27-993): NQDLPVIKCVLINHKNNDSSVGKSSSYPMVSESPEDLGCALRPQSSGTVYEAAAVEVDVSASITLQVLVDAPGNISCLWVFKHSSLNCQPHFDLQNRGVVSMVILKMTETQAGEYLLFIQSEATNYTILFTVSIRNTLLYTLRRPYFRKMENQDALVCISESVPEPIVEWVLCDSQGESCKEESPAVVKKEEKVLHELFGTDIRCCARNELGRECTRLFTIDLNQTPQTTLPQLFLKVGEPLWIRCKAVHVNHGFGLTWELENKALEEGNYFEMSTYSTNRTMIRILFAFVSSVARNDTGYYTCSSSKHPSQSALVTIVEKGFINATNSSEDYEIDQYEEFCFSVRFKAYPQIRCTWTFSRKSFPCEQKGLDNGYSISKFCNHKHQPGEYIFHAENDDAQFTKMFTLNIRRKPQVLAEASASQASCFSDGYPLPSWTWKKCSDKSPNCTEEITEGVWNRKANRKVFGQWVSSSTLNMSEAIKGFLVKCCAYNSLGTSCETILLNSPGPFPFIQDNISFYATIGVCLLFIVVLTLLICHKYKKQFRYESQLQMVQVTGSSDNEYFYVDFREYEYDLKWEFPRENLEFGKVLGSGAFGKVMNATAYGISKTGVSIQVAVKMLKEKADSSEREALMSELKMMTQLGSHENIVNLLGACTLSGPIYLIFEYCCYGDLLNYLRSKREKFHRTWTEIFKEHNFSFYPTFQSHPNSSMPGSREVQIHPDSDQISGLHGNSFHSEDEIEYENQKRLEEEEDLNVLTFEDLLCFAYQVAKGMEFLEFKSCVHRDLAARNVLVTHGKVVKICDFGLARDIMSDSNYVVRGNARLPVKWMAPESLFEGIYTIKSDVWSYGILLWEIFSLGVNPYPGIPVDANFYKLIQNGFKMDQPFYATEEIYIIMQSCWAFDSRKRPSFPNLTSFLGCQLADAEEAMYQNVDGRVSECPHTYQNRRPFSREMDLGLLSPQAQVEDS
Kind of data set: FLT3 kinase activity assay (FRET-based Z'-LYTE). It counts as biochemical. The note with it: ATP 500 µM; read-out: IC50 against FLT3 kinase. As for the experimental part:
as §2

Where [5] appears, read: experiment not completed (data not shown).

T1 sequence (Q9P1W9 whole entry): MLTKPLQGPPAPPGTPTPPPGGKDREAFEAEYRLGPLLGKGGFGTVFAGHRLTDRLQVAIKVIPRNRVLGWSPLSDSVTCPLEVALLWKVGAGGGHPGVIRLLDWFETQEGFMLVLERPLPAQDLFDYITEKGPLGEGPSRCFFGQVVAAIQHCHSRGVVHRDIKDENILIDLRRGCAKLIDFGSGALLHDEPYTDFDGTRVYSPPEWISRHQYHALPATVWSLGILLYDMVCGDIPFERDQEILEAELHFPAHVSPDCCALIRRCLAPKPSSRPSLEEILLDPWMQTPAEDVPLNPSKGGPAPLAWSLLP
T3 sequence (P11309 whole entry): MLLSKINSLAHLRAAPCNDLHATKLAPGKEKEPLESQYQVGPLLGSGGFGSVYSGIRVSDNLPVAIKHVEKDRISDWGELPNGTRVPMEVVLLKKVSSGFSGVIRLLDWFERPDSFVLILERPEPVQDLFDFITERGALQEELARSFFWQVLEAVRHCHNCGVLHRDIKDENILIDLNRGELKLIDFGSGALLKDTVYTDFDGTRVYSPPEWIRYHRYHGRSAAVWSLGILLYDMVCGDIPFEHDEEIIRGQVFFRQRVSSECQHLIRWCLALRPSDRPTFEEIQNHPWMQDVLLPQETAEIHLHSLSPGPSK

With `N[C@@H]1CCCN(c2c(/C=C3\SC(=O)NC3=O)cccc2-c2ccccc2)C1` [AZD1208], in data set [1] (ref NCT01489722), the “Reason for termination of clinical study” value is “lack of clinical response”.

Take `CN1CCC(CNc2ccc3ncc(-c4cccc(OC(F)(F)F)c4)n3n2)CC1` [SGI-1776]: in data set [1] (ref NCT00848601), the “Reason for termination of clinical study” value was “dose-limiting toxicity”.

For the compound `CN1CCN(c2ccc(-c3cnc4ccc(/C=C5\SC(=O)NC5=O)nn34)cc2)CC1.CS(=O)(=O)O` [YPC-21440 MsOH, (Z)-5-([3-{4-(4-methylpiperazin-1-yl)phenyl}imidazo[1,2-b]pyridazin-6-yl]methylene)thiazolidine-2,4-dione methanesulfonate], in the data set with PC-3 xenograft model (setting [5]), the Body weight loss result is “serious body weight loss” and the Tumor growth entry is recorded as “tended to be suppressed”. Further, the “TGI (tumor growth inhibition)” value in the data set with MV-4-11 xenograft model (62.5 mg/kg/dose) is given as 26%. In the data set with MV-4-11 xenograft model (125 mg/kg/dose), the “Body weight decrease (as much as) compared with day 1” value was 5.2 ± 10% and the “TGI (tumor growth inhibition)” value was 60%. Moreover, in the data set with MV-4-11 xenograft model (187.5 mg/kg/dose), the “Body weight decrease (as much as) compared with day 1” value amounted to 7.1 ± 21% and the “TGI (tumor growth inhibition)” value amounted to 77%.

As for `CCCCCN1CCN(c2ccc(-c3cnc4ccc(/C=C5\SC(=O)NC5=O)nn34)cc2F)CC1` [YPC-21813, (Z)-5-([3-{4-(4-pentylpiperazin-1-yl)-3-fluorophenyl}imidazo[1,2-b]pyridazin-6-yl]methylene)thiazolidine-2,4-dione], the values for the IC50 at Pim-2, at Pim-3 and on Pim-1 [2] were 490 nM, 360 nM and 430 nM, respectively.

As to `CCCCCCCCCCN1CCN(c2ccc(-c3cnc4ccc(/C=C5\SC(=O)NC5=O)nn34)cc2F)CC1` [YPC-21814, (Z)-5-([3-{4-(4-decylpiperazin-1-yl)-3-fluorophenyl}imidazo[1,2-b]pyridazin-6-yl]methylene)thiazolidine-2,4-dione], the “Binding to Pim-1 by SPR (Biacore)” value on Pim-1 [3] is “did not bind to Pim-1”. In addition, the IC50 at Pim-2, at Pim-3 and on Pim-1 [2] was above 1800 nM throughout.

Turning to `CCN1CCN(c2ccc(-c3cnc4ccc(/C=C5\SC(=O)NC5=O)nn34)cc2F)CC1.CS(=O)(=O)O` [YPC-21817 MsOH, (Z)-5-([3-{4-(4-ethylpiperazin-1-yl)-3-fluorophenyl}imidazo[1,2-b]pyridazin-6-yl]methylene)thiazolidine-2,4-dione methanesulfonate], the “Phosphorylation level of 4E-BP in tumors” value in [4] (1, 2, and 6 hours after administration) is “signigficantly decreased”; in [4] (24 hours after administration), “almost completely recovered”. In addition, the “TGI (tumor growth inhibition)” value in the data set with PC-3 xenograft model (62.5 mg/kg/dose) was found to be 0.92%; with PC-3 xenograft model (125 mg/kg/dose) it was 8.4%; with PC-3 xenograft model (187.5 mg/kg/dose) it was 48%; in the data set with MV-4-11 xenograft model (62.5 mg/kg/dose), 20%; in the data set with MV-4-11 xenograft model (125 mg/kg/dose), 39%; in the data set with MV-4-11 xenograft model (187.5 mg/kg/dose) it was 70%. Further, the “Serious decrease in body weight” value with PC-3 xenograft model (evaluation period) and in the data set with MV-4-11 xenograft model (evaluation period) was “not observed” throughout.

For the compound `CCN1CCN(c2ccc(-c3cnc4ccc(/C=C5\SC(=O)NC5=O)nn34)cc2F)CC1` [YPC-21817, (Z)-5-([3-{4-(4-ethylpiperazin-1-yl)-3-fluorophenyl}imidazo[1,2-b]pyridazin-6-yl]methylene)thiazolidine-2,4-dione], the “Phosphorylation levels of Bad, 4EBP, and p21” value with PC-3 was “decreased”. Moreover, the IC50 in the data set on cancer cell lines was 24 to 650 nM; on FLT3 it was 2000 nM.

In the case of `CN1CCN(c2ccc(-c3cnc4ccc(/C=C5\SC(=O)NC5=O)nn34)cc2C(C)(C)C)CC1` [YPC-21867, (Z)-5-([3-{3-(tert-butyl)-4-(4-methylpiperazin-1-yl)phenyl}imidazo[1,2-b]pyridazin-6-yl]methylene)thiazolidine-2,4-dione], the IC50 on Pim-2 is 190 nM; on Pim-3 it was 540 nM; on Pim-1 [2], 120 nM.

These data come from article PMC8126654, “Novel Pan-Pim Kinase Inhibitors With Imidazopyridazine and Thiazolidinedione Structure Exert Potent Antitumor Activities” (Frontiers in Pharmacology, 2021).
